Test system: ruminal bacterial urease
Test: urease activity
Type: biochemical

IC50: 126.8 ± 1.2 µM
Structure (SMILES): C=CCS[S+]([O-])CC=C (stereo not shown) [allicin]
